Assay results as given in US10131652B2, “Pyrimidinyloxy benzene derivatives as herbicides” (E. I. DU PONT DE NEMOURS AND COMPANY, priority 2014, dated 2018).

Legend:
Assay in all cases: Test D pre-/postemergence plant response
Format in all cases: in vivo
Conditions in all cases: Postemergence
[1] = test system: Italian ryegrass (Lolium multiflorum)
Excerpt: (§1) Seeds of plant species selected from blackgrass (Alopecurus myosuroides), Italian ryegrass (Lolium multiflorum), winter wheat (Triticum aestivum), galium (catchweed bedstraw, Galium aparine), corn (Zea mays), large (Lg) crabgrass (Digitaria sanguinalis), giant foxtail (Setaria faberii), johnsongrass (Sorghum halepense), lambsquarters (Chenopodium album), morningglory (Ipomoea coccinea), yellow nutsedge (Cyperus esculentus), pigweed (Amaranthus retroflexus), ragweed (common ragweed, Ambrosia elatior), soybean (Glycine max), bamyardgrass (Echinochloa crus-galli), oilseed rape (Brassica napus), waterhemp (common waterhemp, Amaranthus rudis), and velvetleaf (Abutilon theophrasti) were planted into a blend of loam soil and sand and treated preemergence with test chemicals formulated in a non-phytotoxic solvent mixture which included a surfactant. At the same time, plants selected from these crop and weed species and also kochia (Kochia scoparia), wild oat (Avena fatua), and chickweed (common chickweed, Stellaria media) were planted in pots containing Redi-Earth® planting medium (Scotts Company, 14111 Scottslawn Road, Marysville, Ohio 43041) comprising spaghnum peat moss, vermiculite, wetting agent and starter nutrients and treated with postemergence applications of test chemicals formulated in the same manner. Plants ranged in height from 2 to 18 cm (1- to 4-leaf stage) for postemergence treatments. Treated plants and controls were maintained in a greenhouse for 13 to 15 days, after which time all species were compared to controls and visually evaluated. Plant response ratings, summarized in Table D, are based on a scale of 0 to 100 where 0 is no effect and 100 is complete control. A dash (-) response means no test result.

[2] = test system: barnyardgrass (Echinochloa crus-galli)
Excerpt: as §1

[3] = test system: blackgrass (Alopecurus myosuroides)
Excerpt: as §1

corn (Zea mays) = test system: corn (Zea mays)
Excerpt: as §1

[4] = test system: galium (catchweed bedstraw, Galium aparine)
Excerpt: as §1

[5] = test system: giant foxtail (Setaria faberii)
Excerpt: as §1

[6] = test system: johnsongrass (Sorghum halepense)
Excerpt: as §1

[7] = test system: lambsquarters (Chenopodium album)
Excerpt: as §1

[8] = test system: large (Lg) crabgrass (Digitaria sanguinalis)
Excerpt: as §1

[9] = test system: morningglory (Ipomoea coccinea)
Excerpt: as §1

[10] = test system: oilseed rape (Brassica napus)
Excerpt: as §1

[11] = test system: pigweed (Amaranthus retroflexus)
Excerpt: as §1

[12] = test system: ragweed (common ragweed, Ambrosia elatior)
Excerpt: as §1

soybean (Glycine max) = test system: soybean (Glycine max)
Excerpt: as §1

[13] = test system: velvetleaf (Abutilon theophrasti)
Excerpt: as §1

[14] = test system: waterhemp (common waterhemp, Amaranthus rudis)
Excerpt: as §1

[15] = test system: winter wheat (Triticum aestivum)
Excerpt: as §1

[16] = test system: yellow nutsedge (Cyperus esculentus)
Excerpt: as §1

CC(F)(F)c1cc(-c2ccccc2Oc2ncc(Cl)cn2)no1 [Compound 220]
Plant response rating (scale 0 to 100), Ryegrass, Italian ([1]; 2 g ai/ha): 0
Plant response rating (scale 0 to 100), Ryegrass, Italian ([1]; 4 g ai/ha): 0
Plant response rating (scale 0 to 100), Ryegrass, Italian ([1]; 8 g ai/ha): 0
Plant response rating (scale 0 to 100), Ryegrass, Italian ([1]; 16 g ai/ha): 0
Plant response rating (scale 0 to 100), Barnyardgrass ([2]; 2 g ai/ha): 5
Plant response rating (scale 0 to 100), Barnyardgrass ([2]; 4 g ai/ha): 5
Plant response rating (scale 0 to 100), Barnyardgrass ([2]; 8 g ai/ha): 10
Plant response rating (scale 0 to 100), Barnyardgrass ([2]; 16 g ai/ha): 10
Plant response rating (scale 0 to 100), Blackgrass ([3]; 2 g ai/ha): 0
Plant response rating (scale 0 to 100), Blackgrass ([3]; 4 g ai/ha): 0
Plant response rating (scale 0 to 100), Blackgrass ([3]; 8 g ai/ha): 0
Plant response rating (scale 0 to 100), Blackgrass ([3]; 16 g ai/ha): 5
Plant response rating (scale 0 to 100), Corn (corn (Zea mays); 2 g ai/ha): 0
Plant response rating (scale 0 to 100), Corn (corn (Zea mays); 4 g ai/ha): 5
Plant response rating (scale 0 to 100), Corn (corn (Zea mays); 8 g ai/ha): 5
Plant response rating (scale 0 to 100), Corn (corn (Zea mays); 16 g ai/ha): 5
Plant response rating (scale 0 to 100), Galium ([4]; 2 g ai/ha): 50
Plant response rating (scale 0 to 100), Galium ([4]; 4 g ai/ha): 50
Plant response rating (scale 0 to 100), Galium ([4]; 8 g ai/ha): 55
Plant response rating (scale 0 to 100), Galium ([4]; 16 g ai/ha): 60
Plant response rating (scale 0 to 100), Foxtail, Giant ([5]; 2 g ai/ha): 0
Plant response rating (scale 0 to 100), Foxtail, Giant ([5]; 4 g ai/ha): 5
Plant response rating (scale 0 to 100), Foxtail, Giant ([5]; 8 g ai/ha): 5
Plant response rating (scale 0 to 100), Foxtail, Giant ([5]; 16 g ai/ha): 5
Plant response rating (scale 0 to 100), Johnsongrass ([6]; 2 g ai/ha): 0
Plant response rating (scale 0 to 100), Johnsongrass ([6]; 4 g ai/ha): 0
Plant response rating (scale 0 to 100), Johnsongrass ([6]; 8 g ai/ha): 0
Plant response rating (scale 0 to 100), Johnsongrass ([6]; 16 g ai/ha): 5
Plant response rating (scale 0 to 100), Lambsquarters ([7]; 2 g ai/ha): 55
Plant response rating (scale 0 to 100), Lambsquarters ([7]; 4 g ai/ha): 45
Plant response rating (scale 0 to 100), Lambsquarters ([7]; 8 g ai/ha): 5
Plant response rating (scale 0 to 100), Lambsquarters ([7]; 16 g ai/ha): 70
Plant response rating (scale 0 to 100), Crabgrass, Large ([8]; 2 g ai/ha): 5
Plant response rating (scale 0 to 100), Crabgrass, Large ([8]; 4 g ai/ha): 5
Plant response rating (scale 0 to 100), Crabgrass, Large ([8]; 8 g ai/ha): 5
Plant response rating (scale 0 to 100), Crabgrass, Large ([8]; 16 g ai/ha): 15
Plant response rating (scale 0 to 100), Morningglory ([9]; 2 g ai/ha): 35
Plant response rating (scale 0 to 100), Morningglory ([9]; 4 g ai/ha): 15
Plant response rating (scale 0 to 100), Morningglory ([9]; 8 g ai/ha): 25
Plant response rating (scale 0 to 100), Morningglory ([9]; 16 g ai/ha): 75
Plant response rating (scale 0 to 100), Oilseed Rape ([10]; 2 g ai/ha): 0
Plant response rating (scale 0 to 100), Oilseed Rape ([10]; 4 g ai/ha): 5
Plant response rating (scale 0 to 100), Oilseed Rape ([10]; 8 g ai/ha): 5
Plant response rating (scale 0 to 100), Oilseed Rape ([10]; 16 g ai/ha): 10
Plant response rating (scale 0 to 100), Pigweed ([11]; 2 g ai/ha): 70
Plant response rating (scale 0 to 100), Pigweed ([11]; 4 g ai/ha): 75
Plant response rating (scale 0 to 100), Pigweed ([11]; 8 g ai/ha): 80
Plant response rating (scale 0 to 100), Pigweed ([11]; 16 g ai/ha): 85
Plant response rating (scale 0 to 100), Ragweed ([12]; 2 g ai/ha): 5
Plant response rating (scale 0 to 100), Ragweed ([12]; 4 g ai/ha): 15
Plant response rating (scale 0 to 100), Ragweed ([12]; 8 g ai/ha): 15
Plant response rating (scale 0 to 100), Ragweed ([12]; 16 g ai/ha): 25
Plant response rating (scale 0 to 100), Soybean (soybean (Glycine max); 2 g ai/ha): 15
Plant response rating (scale 0 to 100), Soybean (soybean (Glycine max); 4 g ai/ha): 10
Plant response rating (scale 0 to 100), Soybean (soybean (Glycine max); 8 g ai/ha): 10
Plant response rating (scale 0 to 100), Soybean (soybean (Glycine max); 16 g ai/ha): 10
Plant response rating (scale 0 to 100), Velvetleaf ([13]; 2 g ai/ha): 5
Plant response rating (scale 0 to 100), Velvetleaf ([13]; 4 g ai/ha): 15
Plant response rating (scale 0 to 100), Velvetleaf ([13]; 8 g ai/ha): 10
Plant response rating (scale 0 to 100), Velvetleaf ([13]; 16 g ai/ha): 25
Plant response rating (scale 0 to 100), Waterhemp ([14]; 2 g ai/ha): 15
Plant response rating (scale 0 to 100), Waterhemp ([14]; 4 g ai/ha): 60
Plant response rating (scale 0 to 100), Waterhemp ([14]; 8 g ai/ha): 70
Plant response rating (scale 0 to 100), Waterhemp ([14]; 16 g ai/ha): 80
Plant response rating (scale 0 to 100), Wheat ([15]; 2 g ai/ha): 0
Plant response rating (scale 0 to 100), Wheat ([15]; 4 g ai/ha): 0
Plant response rating (scale 0 to 100), Wheat ([15]; 8 g ai/ha): 0
Plant response rating (scale 0 to 100), Wheat ([15]; 16 g ai/ha): 0
Plant response rating (scale 0 to 100), Nutsedge, Yellow ([16]; 2 g ai/ha): 0
Plant response rating (scale 0 to 100), Nutsedge, Yellow ([16]; 4 g ai/ha): 0
Plant response rating (scale 0 to 100), Nutsedge, Yellow ([16]; 8 g ai/ha): 0
Plant response rating (scale 0 to 100), Nutsedge, Yellow ([16]; 16 g ai/ha): 5
